These results are taken from patent US20140093641A1, “LUBRICANT COMPOSITIONS CONTAINING FLUOROOXIRANES” (3MM INNOVATIVE PROPERTIES COMPANY, priority 2011, published 2014).

One series has as its system rats. The series is described as follows: Short-term inhalation test (acute toxicity). Type of series: in vivo. The conditions noted are these: rats exposed for four hours at 50,000 ppm in air.
Series [1] can be described thus: Solubility testing of lubricants, additives and impurities in deposition solvents. Type of series: physicochemical. The protocol:
A disposable glass vial was placed on a four-place balance and the mass (MV) recorded. The balance with the glass vial was tared and deposition solvent was added (varying from 1 g to 5 g) and the mass (MS) was recorded. The balance with the deposition solvent in the glass vial was tared again. The lubricant was added in a dropwise fashion using a disposable plastic pipet and the mass (ML) recorded. The glass vial was then mixed by hand for 10 seconds to 30 seconds and the solution clarity was visually observed and recorded. If the solution was hazy, the lubricant was considered to have exceeded the solubility limit of the deposition solvent. If the solution was clear, additional drops of lubricant were added to the glass vial, the mass (ML) was recorded, the glass vial was shaken, and the solution clarity was observed. This process was continued until a hazy solution was observed or more than 10% w/w (weight of lubricant to combined weight of lubricant and deposition solvent) was reached. After a hazy solution or more than 10% w/w was reached, the glass vial with the solution was removed from the balance. The balance was tared and the final mass (MF) of the glass vial with deposition solvent and lubricant was measured and recorded. To account for the evaporative losses of the deposition solvent during the experiment, the mass of the vial and the mass of the lubricant added were subtracted from the total mass of the vial with the deposition solvent and lubricant to determine the final mass of deposition solvent (MS*) in the vial (i.e., MS*=MF−MV−ML). Solubility of the lubricant in deposition solvents was calculated as ML/(ML+MS*) and reported in % w/w (weight/weight).
If the endpoint was not clearly observed, the solubility experiment was repeated. Where a range is reported for solubility, the lower number is the highest soluble value and the higher number is the lowest insoluble value.

As to `FC(F)(F)C1(F)OC1(F)C(F)(C(F)(F)F)C(F)(F)F` (stereo not drawn) [C6 Oxirane, 2,3-difluoro-2-(1,2,2,2-tetrafluoro-1-trifluoromethyl-ethyl)-3-trifluoromethyl-oxirane], the “acute toxicity, short-term inhalation” value with rats is recorded as “low acute toxicity”.
On to `CCCCCCCCOC(=O)c1ccccc1C(=O)OCCCCCCCC` [DOP, Dioctylphthlate], for which, in series [1], the “Solubility in C6 Oxirane” value is listed as below 0.9%, the “Solubility in C9 Oxirane” value was below 1.1%, the “Solubility in NOVEC 7100” value worked out at 5.1% and the “Solubility in PF-5060DL” value is given as below 0.005%. For the same molecule, in series [1], the “Solubility in VERTREL XF” value is above 30%.
